This is an account of results in ChEMBL document CHEMBL5584309, “Discovery of Novel Mcl-1 Inhibitors with a 3-Substituted-1H-indole-1-yl Moiety Binding to the P1-P3 Pockets to Induce Apoptosis in Acute Myeloid Leukemia Cells” (J Med Chem, 2024).

Series [1] deals with Voltage-gated inwardly rectifying potassium channel KCNH2 (Homo sapiens, UniProt Q12809). Nature of the series: Inhibition of hERG. The class given is toxicity.
Series [2] concerns THP-1. Nature of the series: Induction of apoptosis in Noxa knockdown human THP-1 cells assessed as PARP cleavage at 20 uM measured after 24 hrs by […]. The series is classed as functional, cell-based.
Series [3] has as its system HL-60. Nature of the series: Induction of apoptosis in human HL-60 cells assessed as necrotic cells at 5 uM measured after 24 hrs by Annexin V-FITC/propidium iodide double staining based assay (reference value: 0.18%). The class given is functional.
The nature of series [4]: Toxicity in NOD SCID mouse assessed as change in heart tissue at 25 mg/kg, ip administered for 7 consecutive days by Hematoxylin-eosin (HE) staining based assay. The class given is organism-based. The conditions noted are these: in vivo, 168 h, time 7 day.
For series [5], the system named is THP-1. Nature of the series: Induction of apoptosis in human THP-1 cells assessed as late apoptotic cells at 10 uM measured after 24 hrs by Annexin V-FITC/propidium iodide double staining based assay (reference value: 2.81%). The series is classed as functional.
The subject of series [6] is THP-1. Nature of the series: Induction of apoptosis in human THP-1 cells assessed as early apoptotic cells at 5 uM measured after 24 hrs by Annexin V-FITC/propidium iodide double staining based assay (reference value: 4.04%). The series is classed as functional.
Series [7] can be described thus: Tmax in Sprague-Dawley rat at 20 mg/kg, ip measured upto 24 hrs by LC-MS/MS analysis. The conditions noted are these: in vivo. The class given is ADME, organism-based.
Series [8] deals with THP-1. Nature of the series: In vivo antitumor activity against human THP-1 cells xenografted in female NOD SCID mouse assessed as tumor growth inhibition at 40 mg/kg, ip once daily after 10 days of tumor inoculation treated for 14 days relative to control. The conditions noted are these: THP-1, 336 h, time 14 day, read-out: TGI. The series is classed as functional. For orientation: In xenograft studies the graft and the host belong to different species.

In series [9] the test system is THP-1. Nature of the series: In vivo antitumor activity against human THP-1 cells xenografted in female NOD SCID mouse assessed as tumor growth inhibition at 80 mg/kg, ip once daily after 10 days of tumor inoculation treated for 14 days relative to control. The series is classed as functional. The conditions noted are these: THP-1, 336 h, time 14 day, read-out: TGI.

Series [10] relates to HL-60. Nature of the series: Induction of apoptosis in human HL-60 cells assessed as increase in Noxa measured after 24 hrs by Western blot analysis. The class given is functional, cell-based. To be noted: dose 10-20 µM. (In western blotting, separated proteins are transferred to a membrane and probed.)
A short description of series [11]: Half life in Sprague-Dawley rat at 5 mg/kg, iv measured upto 24 hrs by LC-MS/MS analysis. The series is classed as ADME, organism-based. To be noted: in vivo.
Series [12] relates to HL-60. Nature of the series: In vivo antitumor activity against human HL-60 cells xenografted in female NOD SCID mouse assessed as reduction in tumor volume at 80 mg/kg, ip once daily after 15 days of tumor inoculation treated for 12 days. To be noted: time 12.0 day. The class given is functional, organism-based.
A short description of series [13]: Toxicity in NOD SCID mouse assessed as change in spleen tissue at 25 mg/kg, ip administered for 7 consecutive days by Hematoxylin-eosin (HE) staining based assay. The series is classed as organism-based. To be noted: in vivo, 168 h, time 7 day.
Series [14] has as its system HL-60. Nature of the series: In vivo antitumor activity against human HL-60 cells xenografted in female NOD SCID mouse assessed as reduction in tumor weight at 80 mg/kg, ip once daily after 15 days of tumor inoculation treated for 12 days. The class given is functional, organism-based. The conditions noted are these: time 12.0 day.
Series [15] can be described thus: Metabolic stability in rat liver microsomes assessed as compound remaining measured after 30 mins by LC-MS/MS analysis. The class given is ADME, Microsome. To be noted: read-out: Stability. Background: Liver microsomes are a subcellular fraction often used to study metabolism.
A short description of series [16]: Toxicity in NOD SCID mouse xenografted with human HL-60 cells assessed as change in body weight at 80 mg/kg, ip once daily after 15 days of tumor inoculation treated for 12 days. The conditions noted are these: in vivo, 288 h, time 12 day. The series is classed as organism-based.
Series [17] relates to HL-60. Nature of the series: Induction of apoptosis in human HL-60 cells assessed as early apoptotic cells at 2.5 uM measured after 24 hrs by Annexin V-FITC/propidium iodide double staining based assay (reference value: 3.37%). The class given is functional.
A short description of series [18]: Toxicity in NOD SCID mouse xenografted with human HL-60 cells assessed as change in liver tissue at 80 mg/kg, ip once daily after 15 days of tumor inoculation treated for 12 days. To be noted: in vivo, 288 h, time 12 day. The series is classed as organism-based.
Series [19] can be described thus: Cmax in Sprague-Dawley rat at 20 mg/kg, ip measured upto 24 hrs by LC-MS/MS analysis. The conditions noted are these: in vivo. The class given is ADME, organism-based.
Series [20] in a line: Toxicity in NOD SCID mouse xenografted with human THP-1 cells assessed as change in heart tissue at 40 to 80 mg/kg, ip once daily after 10 days of tumor inoculation treated for 14 days relative to control. To be noted: in vivo, 336 h, dose 40-80 mg/kg, time 14 day. The class given is organism-based.
Series [21] in a line: Bioavailability in Sprague-Dawley rat at 20 mg/kg, ip measured upto 24 hrs by LC-MS/MS analysis. To be noted: in vivo. The series is classed as ADME, organism-based.
Series [22] relates to THP-1. Nature of the series: Induction of apoptosis in human THP-1 cells assessed as late apoptotic cells at 20 uM measured after 24 hrs by Annexin V-FITC/propidium iodide double staining based assay (reference value: 2.81%). The class given is functional.
The subject of series [23] is HL-60. Nature of the series: Induction of apoptosis in human HL-60 cells assessed as late apoptotic cells at 2.5 uM measured after 24 hrs by Annexin V-FITC/propidium iodide double staining based assay (reference value: 3.78%). The series is classed as functional.
Series [24] in a line: Tmax in Sprague-Dawley rat at 5 mg/kg, iv measured upto 24 hrs by LC-MS/MS analysis. The class given is ADME, organism-based. To be noted: in vivo.
The nature of series [25]: Half life in Sprague-Dawley rat at 20 mg/kg, ip measured upto 24 hrs by LC-MS/MS analysis. To be noted: in vivo. The series is classed as ADME, organism-based.
Series [26] can be described thus: Cytotoxicity against human AC16 cells assessed as change in intracellular calcium level at 20 uM measured after 24 hrs by Fluo-4 AM based flow cytometry. The class given is toxicity, cell-based. To be noted: ac16 [human hybrid].
Series [27] is described as follows: Toxicity in NOD SCID mouse assessed as change in body weight at 25 mg/kg, ip administered for 7 consecutive days. To be noted: in vivo, 168 h, time 7 day. The class given is organism-based.
Series [28] deals with HL-60. Nature of the series: Induction of apoptosis in human HL-60 cells assessed as viable cells at 2.5 uM measured after 24 hrs by Annexin V-FITC/propidium iodide double staining based assay (reference value: 92.68%). The series is classed as functional. The conditions noted are these: read-out: Activity.
Series [29] deals with Apoptosis regulator Bcl-2 (Homo sapiens, UniProt P10415). Nature of the series: Binding affinity to Bcl-2 in human THP-1 cells assessed as dissociation of Bim from Bcl-2 at 20 uM measured after 24 hrs by Co-immunoprecipitation (Co-IP) assay. The series is classed as cell-based.
The nature of series [30]: Toxicity in NOD SCID mouse xenografted with human THP-1 cells assessed as change in liver tissue at 40 to 80 mg/kg, ip once daily after 10 days of tumor inoculation treated for 14 days relative to control. The series is classed as organism-based. To be noted: in vivo, 336 h, dose 40-80 mg/kg, time 14 day.
Series [31] relates to THP-1. Nature of the series: Induction of apoptosis in human THP-1 cells assessed as necrotic cells at 5 uM measured after 24 hrs by Annexin V-FITC/propidium iodide double staining based assay (reference value: 0.13%). The series is classed as functional.
The test system of series [32] is HL-60. Nature of the series: Induction of apoptosis in human HL-60 cells assessed as late apoptotic cells at 10 uM measured after 24 hrs by Annexin V-FITC/propidium iodide double staining based assay (reference value: 3.78%). The class given is functional.
Series [33] can be described thus: AUC (0 to infinity) in Sprague-Dawley rat at 5 mg/kg, iv measured upto 24 hrs by LC-MS/MS analysis. The series is classed as ADME, organism-based. The conditions noted are these: in vivo.
Series [34] can be described thus: MRT (0 to infinity) in Sprague-Dawley rat at 5 mg/kg, iv measured upto 24 hrs by LC-MS/MS analysis. The class given is ADME, organism-based. To be noted: in vivo.
Series [35] relates to THP-1. Nature of the series: Induction of apoptosis in human THP-1 cells assessed as viable cells at 5 uM measured after 24 hrs by Annexin V-FITC/propidium iodide double staining based assay (reference value: 93.02%). The series is classed as functional. To be noted: read-out: Activity.

Calls of active or inactive are those of the source. Some results are limits rather than exact numbers.

Apoptosis regulator Bcl-2, sequence (P10415 whole entry): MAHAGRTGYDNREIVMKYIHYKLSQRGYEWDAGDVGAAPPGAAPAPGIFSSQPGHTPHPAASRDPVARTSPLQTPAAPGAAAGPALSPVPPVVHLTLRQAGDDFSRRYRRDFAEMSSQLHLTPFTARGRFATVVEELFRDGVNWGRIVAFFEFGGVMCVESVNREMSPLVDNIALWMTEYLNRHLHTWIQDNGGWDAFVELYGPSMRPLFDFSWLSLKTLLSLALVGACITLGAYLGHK
Voltage-gated inwardly rectifying potassium channel KCNH2, sequence (Q12809 whole entry): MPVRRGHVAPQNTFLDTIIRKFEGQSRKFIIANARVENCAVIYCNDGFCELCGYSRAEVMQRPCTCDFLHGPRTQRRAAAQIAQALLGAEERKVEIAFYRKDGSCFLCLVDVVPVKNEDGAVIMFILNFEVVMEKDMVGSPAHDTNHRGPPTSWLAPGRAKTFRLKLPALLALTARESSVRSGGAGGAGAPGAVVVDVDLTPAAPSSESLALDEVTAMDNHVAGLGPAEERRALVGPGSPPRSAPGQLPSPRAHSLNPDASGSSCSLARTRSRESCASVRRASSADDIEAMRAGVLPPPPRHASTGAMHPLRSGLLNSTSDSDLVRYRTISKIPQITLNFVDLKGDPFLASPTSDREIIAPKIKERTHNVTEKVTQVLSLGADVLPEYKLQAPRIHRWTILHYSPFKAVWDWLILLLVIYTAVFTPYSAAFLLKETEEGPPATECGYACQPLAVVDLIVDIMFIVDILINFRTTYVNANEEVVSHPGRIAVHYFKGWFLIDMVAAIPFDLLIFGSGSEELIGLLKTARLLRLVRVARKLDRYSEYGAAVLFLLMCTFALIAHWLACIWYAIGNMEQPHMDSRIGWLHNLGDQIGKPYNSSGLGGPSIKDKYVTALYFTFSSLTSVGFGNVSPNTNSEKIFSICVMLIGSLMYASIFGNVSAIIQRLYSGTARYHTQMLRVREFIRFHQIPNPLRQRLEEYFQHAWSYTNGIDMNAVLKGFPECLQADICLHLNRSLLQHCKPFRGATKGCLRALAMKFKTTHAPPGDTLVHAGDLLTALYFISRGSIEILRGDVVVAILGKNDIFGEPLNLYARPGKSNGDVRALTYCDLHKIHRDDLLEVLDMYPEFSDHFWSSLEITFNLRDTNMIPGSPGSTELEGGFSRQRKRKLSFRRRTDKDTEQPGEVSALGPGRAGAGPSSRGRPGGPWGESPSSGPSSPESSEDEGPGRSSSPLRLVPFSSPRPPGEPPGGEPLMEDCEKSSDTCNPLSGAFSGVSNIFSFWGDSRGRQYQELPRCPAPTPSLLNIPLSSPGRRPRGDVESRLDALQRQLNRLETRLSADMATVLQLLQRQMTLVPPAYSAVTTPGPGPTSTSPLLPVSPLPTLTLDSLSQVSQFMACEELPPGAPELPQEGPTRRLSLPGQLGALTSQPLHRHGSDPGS

The term IC50 denotes the concentration that gives 50% inhibition. Low readings indicate greater potency in that assay, high ones weaker potency in that assay. Broadly, the Tmax is the time at which the peak concentration occurs. The term half-life denotes the time needed for the level to fall by half in the phase considered. The Cmax is the highest concentration seen after dosing. Broadly, the bioavailability is the share of a dose that reaches the circulation, judged against a reference dose that is usually intravenous. One may read the AUC(0-inf) as total exposure, with the tail of the curve extrapolated. High values mean more exposure, low ones less exposure. As a reminder, the MRT inf is a mean duration of stay, worked out from the concentration-time curve. In the case of `Cc1cc(OCCCc2c(C(=O)O)n(CCN3CCOCC3)c3c(-c4ccccc4Cn4cc(CCN(CCN5CCOCC5)S(=O)(=O)c5ccc(F)cc5)c5ccccc54)cccc23)cc(C)c1Cl`, the IC50 in series [1] is more than 50 µM. The outcome (in the series with THP-1 [2]; in series [29]) was inactive. The Activity in the series on HL-60 [3] is 0.57%; in series [4], “Non-Toxic”; with THP-1 [5] it was 4.12%; in the series on THP-1 [6], 4.1%; in the series on HL-60 [10] it was “Dose-Dependent Effect”; in [13], “Non-Toxic”. Moreover, the Activity entry in series [16] is recorded as “Non-Toxic”; in the series on HL-60 [17] it was 3.06%; in series [18] it was “Non-Toxic”; in series [20] it was “Non-Toxic”; in the series on THP-1 [22] it was 6.3%; in the series on HL-60 [23], 3.95%. Moreover, the Activity entry is listed as “Non-Toxic” in series [26]; “Non-Toxic” in series [27]; “Non-Toxic” in [30]; 0.15% in the series with THP-1 [31]; 46.1% in the series on HL-60 [32]. Further, the Tmax in series [7] is 5.33 h; in series [24] it was 4.98 min. Further, the inhibition in vivo at 40 mg/kg in the series on THP-1 [8] was 40.2%. Also, the inhibition in vivo at 80 mg/kg in the series on THP-1 [9] was found to be 57.4%. Further, the half-life in series [11] is 294 min; in [25], 246 min. For the same molecule, the outcome in the series on HL-60 [12] and with HL-60 [14] was Active. For the same molecule, the remaining at 0.5 h in [15] was 53%. For the same molecule, the peak level in [19] (Cmax) was 6240 ng/mL. Further, the bioavailability in series [21] is 74%. For the same molecule, the viability at 2.5 µM in the series on HL-60 [28] was found to be 92.8%. For the same molecule, the AUC(0-inf) in series [33] was 18800 ng·h/mL. This molecule displayed an MRT inf in series [34] of 1.3 h. Moreover, the viability at 5 µM with THP-1 [35] came out at 93.2%.
As for `Cc1nn(C)c(COc2ccc(N3CCN(S(=O)(=O)N(C)C)CC3)cc2)c1-c1cccc2c(CCCOc3cccc4ccccc34)c(C(=O)O)n(CCN3CCOCC3)c12`, the Activity with HL-60 [3] was found to be 1.28%; in the series on THP-1 [5] it was 2.8%; in the series on THP-1 [6], 3.36%; in the series with HL-60 [17], 0.97%; with THP-1 [22], 24.35%; in the series with HL-60 [23], 2.14%. For the same molecule, the results for the Activity with THP-1 [31] and in the series with HL-60 [32] were 0.15% and 50.33%, respectively. Also, in the series on THP-1 [9], the inhibition in vivo at 80 mg/kg is 58.7%. Besides, the remaining at 0.5 h in [15] was 51.8%. The viability at 2.5 µM in the series with HL-60 [28] was 96.2%. Moreover, the viability at 5 µM in the series on THP-1 [35] came out at 94%.
